Source: US12569534B2, “Therapeutic nanoparticles by coacervate complexation and their use for treating bacteria” (priority 2018, dated 2026)

Key:
P. aeruginosa = assay: MIC/MBC broth microdilution, Example 2; type: cell-based, Pseudomonas aeruginosa; settings: Example 2 CS NPs
Procedure: (§1) Reference bacterial stains were purchased from ATCC. Clinical isolates of carbapenem-resistant bacteria were obtained from National Health Research Institutes (NHRI) and Tri-Service General Hospital (TSGH). MIC is defined as the lowest concentration of antibiotics required to inhibit the growth of bacteria. MBC is defined as the lowest concentration of antibiotics required to eradicate microorganisms. The MICs of CS and the CS NPs were determined using a broth microdilution method. Bacterial suspensions were adjusted to a turbidity of McFarland 0.5±0.05 and cultured overnight with different concentrations of CS or CS NPs. A control group without antimicrobial treatment was prepared as a reference. Following overnight incubation, solution turbidity was determined by visual inspection. Culture wells with no observable turbidity were further sub-cultured for MBC evaluation. Solutions from the clear wells were deposited onto an agar plate and cultured overnight to determine the MBCs.
To evaluate the antibacterial efficacy of the CS NPs of this study, their MIC and MBC were assessed against 5 reference bacterial strains and 20 clinical isolates of carbapenem-resistant A. baumannii, E. coli, K. pneumoniae, and P. aeruginosa according to the procedures set forth in EXAMPLE 1. Reference bacterial stains were purchased from ATCC. Carbapenem-resistant clinical isolated were obtained from NHRI.

E. coli = assay: MIC/MBC broth microdilution, Example 1; type: cell-based; settings: Example 1 CS NPs
Procedure: (§2) To evaluate antibacterial efficacy of the CS NPs, their minimum inhibitory concentration (MIC) and minimum bactericidal concentration (MBC) were assessed against 5 reference bacterial strains and 39 clinical isolates of carbapenem-resistant A. baumannii, P. aeruginosa, E. coli, and K. pneumoniae.
as §1

A. baumannii = assay: MIC/MBC broth microdilution, Example 1; type: cell-based, Acinetobacter baumannii; settings: Example 1 CS NPs
Procedure: as §2, §1

A. baumannii 17978 = assay: Murine model of A. baumannii pneumonia, survival; type: in vivo; settings: C57BL/6 mice, 5 mg/kg i.v. twice a day
Procedure: Briefly, A. baumannii 17978 were grown in 30 mL LB broth under shaking at 37° C. to reach the mid-logarithmic phase. The bacteria were then pelleted by centrifugation at 4,000 g for 15 minutes. The bacteria pellet was resuspended in PBS and mixed with 5% mucin derived from porcine stomach (type 3; Sigma-Aldrich, Taiwan).
To induce A. baumannii pneumonia, 8-week-old C57BL/6 mice (National Laboratory Animal Center, Taiwan) were first anesthetized with 2% tribromoethanol (Avertin; 0.018 mL/g). 6.07×10^8 CFU of A. baumannii 17978 were then administered to the mice via intra-tracheal injection to induce pneumonia (FIG. 4A). At 2 hours post-inoculation, the mice were treated twice a day with PBS (as the control), CS, or CS NPs at 5 mg/kg via intravenous injections.
The efficacy between CS and the CS NPs was compared by survival analysis. The difference in survival among the groups was analyzed by a Log-rank test using GraphPad Prism. Treatment efficacy of CS and CS NPs was observed 36 hour post-infection as no mortality was recorded in either of the two drug treatment groups whereas 37.5% of the control group animals were deceased. […] The survival outcome supports retention of CS's antimicrobial activity following nanoparticle assembly.

[1] = system: K. pneumoniae NHRI 1 isolate; assay: Mouse survival model of K. pneumoniae infection; type: in vivo; settings: neutropenic Balb/c mice, lethal i.p. infection; 5 mg/kg CS or 20 mg/kg CS NPs (50% MTD) 5 hours post-infection
Procedure: 3 days and 1 day before infection, the mice were injected intraperitoneally with 150 and 100 mg/kg of cyclophosphamide, respectively, to induce neutropenia. K. pneumoniae NHRI 1 isolate was grown in 60 mL Mueller Hinton broth at 150 rpm (orbital shaker, Yihder TS-580) for 2.5 hours at 37° C. to reach the mid-logarithmic phase. The bacteria were then collected at 10,000×g for 10 minutes at 4° C. The bacterial pellet was resuspended in PBS. To induce K. pneumoniae intraperitoneal infection with a lethal bacterial dose, mice were infected with 1.5×10^8 CFU/mouse in […] via intraperitoneal injection. 5 hours post-infection, the infected mice were treated with 5 mg/kg CS (50% MTD), 20 mg/kg CS NPs (50% MTD), or PBS as a control.

[2] = clinical carbapenem-resistant isolate P. aeruginosa NHRI 1
[3] = clinical carbapenem-resistant isolate P. aeruginosa NHRI 2
[4] = clinical carbapenem-resistant isolate P. aeruginosa NHRI 3
[5] = clinical carbapenem-resistant isolate P. aeruginosa NHRI 4
[6] = clinical carbapenem-resistant isolate P. aeruginosa NHRI 5
[7] = reference strain P. aeruginosa 27853
[8] = clinical carbapenem-resistant E. coli NHRI 1
[9] = clinical carbapenem-resistant E. coli NHRI 2
[10] = clinical carbapenem-resistant E. coli NHRI 3
[11] = clinical carbapenem-resistant E. coli NHRI 4
[12] = clinical carbapenem-resistant E. coli NHRI 5
[13] = clinical carbapenem-resistant E. coli TSGH 2
[14] = clinical carbapenem-resistant E. coli TSGH 4
[15] = clinical carbapenem-resistant E. coli TSGH 6
[16] = clinical carbapenem-resistant E. coli TSGH 8
[17] = clinical carbapenem-resistant E. coli TSGH 10
[18] = clinical carbapenem-resistant E. coli TSGH 14
[19] = clinical carbapenem-resistant E. coli TSGH 20
[20] = clinical carbapenem-resistant E. coli TSGH 21
[21] = clinical carbapenem-resistant A. baumannii NHRI 1
[22] = clinical carbapenem-resistant A. baumannii NHRI 2
[23] = clinical carbapenem-resistant A. baumannii NHRI 3
[24] = clinical carbapenem-resistant A. baumannii NHRI 4
[25] = clinical carbapenem-resistant A. baumannii NHRI 5
[26] = reference strain A. baumannii 15151
[27] = reference strain A. baumannii 17978
[28] = reference strain A. baumannii 19606

## colistin [CS]
P. aeruginosa; [2]
  MBC: 4 µg/mL
  MIC: 1 µg/mL
P. aeruginosa; [3]
  MBC: 4 µg/mL
  MIC: 2 µg/mL
P. aeruginosa; [4]
  MBC: 4 µg/mL
  MIC: 1 µg/mL
P. aeruginosa; [5]
  MBC: 4 µg/mL
  MIC: 2 µg/mL
P. aeruginosa; [6]
  MBC: 4 µg/mL
  MIC: 1 µg/mL
P. aeruginosa; [7]
  MBC: 2 µg/mL
  MIC: 1 µg/mL
E. coli; [8]
  MBC: 1 µg/mL
  MIC: 1 µg/mL
E. coli; [9]
  MBC: 1 µg/mL
  MIC: 1 µg/mL
E. coli; [10]
  MBC: 1 µg/mL
  MIC: 1 µg/mL
E. coli; [11]
  MBC: 2 µg/mL
  MIC: 1 µg/mL
E. coli; [12]
  MBC: 2 µg/mL
  MIC: 1 µg/mL
E. coli; [13]
  MBC: 1 µg/mL
  MIC: 1 µg/mL
E. coli; [14]
  MBC: 1 µg/mL
  MIC: 1 µg/mL
E. coli; [15]
  MBC: 2 µg/mL
  MIC: 1 µg/mL
E. coli; [16]
  MBC: 2 µg/mL
  MIC: 1 µg/mL
E. coli; [17]
  MBC: 1 µg/mL
  MIC: 1 µg/mL
E. coli; [18]
  MBC: 1 µg/mL
  MIC: 1 µg/mL
E. coli; [19]
  MBC: 1 µg/mL
  MIC: 1 µg/mL
E. coli; [20]
  MBC: 1 µg/mL
  MIC: 1 µg/mL
E. coli; reference strain E. coli 25922
  MBC: 2 µg/mL
  MIC: 1 µg/mL
A. baumannii; [21]
  MBC: 2 µg/mL
  MIC: 1 µg/mL
A. baumannii; [22]
  MBC: 2 µg/mL
  MIC: 1 µg/mL
A. baumannii; [23]
  MBC: 1 µg/mL
  MIC: 1 µg/mL
A. baumannii; [24]
  MBC: 2 µg/mL
  MIC: 1 µg/mL
A. baumannii; [25]
  MBC: 1 µg/mL
  MIC: 1 µg/mL
A. baumannii; [26]
  MBC: 1 µg/mL
  MIC: 1 µg/mL
A. baumannii; [27]
  MBC: 1 µg/mL
  MIC: 1 µg/mL
A. baumannii; [28]
  MBC: 1 µg/mL
  MIC: 1 µg/mL
A. baumannii 17978; 36 hour post-infection
  mortality: no mortality
A. baumannii 17978; 72 hours of observation
  surviving mice out of 8 assessed animals: 4
[1]
  mice survival rate: did not improve survival
